Experimental data published in ChEMBL document CHEMBL4261619, “Sentulic acid isolated from Sandoricum koetjape Merr attenuates lipopolysaccharide and interferon gamma co-stimulated nitric oxide production in murine macrophage RAW264 cells” (Bioorg Med Chem Lett, 2018).
Activity calls are given as the source filed them. No cut-off for these calls is given here.

Assays:
Format in all cases: cell-based
[1] = biological target: T1, Toll-like receptor 4 (Mus musculus) (UniProt Q9QUK6); assay: Inhibition of LPS binding to TLR4 in IFNgamma-stimulated mouse RAW264.7 cells assessed as suppression of IFNgamma mRNA expression at 100 uM by qRT-PCR analysis
T1 sequence (whole entry): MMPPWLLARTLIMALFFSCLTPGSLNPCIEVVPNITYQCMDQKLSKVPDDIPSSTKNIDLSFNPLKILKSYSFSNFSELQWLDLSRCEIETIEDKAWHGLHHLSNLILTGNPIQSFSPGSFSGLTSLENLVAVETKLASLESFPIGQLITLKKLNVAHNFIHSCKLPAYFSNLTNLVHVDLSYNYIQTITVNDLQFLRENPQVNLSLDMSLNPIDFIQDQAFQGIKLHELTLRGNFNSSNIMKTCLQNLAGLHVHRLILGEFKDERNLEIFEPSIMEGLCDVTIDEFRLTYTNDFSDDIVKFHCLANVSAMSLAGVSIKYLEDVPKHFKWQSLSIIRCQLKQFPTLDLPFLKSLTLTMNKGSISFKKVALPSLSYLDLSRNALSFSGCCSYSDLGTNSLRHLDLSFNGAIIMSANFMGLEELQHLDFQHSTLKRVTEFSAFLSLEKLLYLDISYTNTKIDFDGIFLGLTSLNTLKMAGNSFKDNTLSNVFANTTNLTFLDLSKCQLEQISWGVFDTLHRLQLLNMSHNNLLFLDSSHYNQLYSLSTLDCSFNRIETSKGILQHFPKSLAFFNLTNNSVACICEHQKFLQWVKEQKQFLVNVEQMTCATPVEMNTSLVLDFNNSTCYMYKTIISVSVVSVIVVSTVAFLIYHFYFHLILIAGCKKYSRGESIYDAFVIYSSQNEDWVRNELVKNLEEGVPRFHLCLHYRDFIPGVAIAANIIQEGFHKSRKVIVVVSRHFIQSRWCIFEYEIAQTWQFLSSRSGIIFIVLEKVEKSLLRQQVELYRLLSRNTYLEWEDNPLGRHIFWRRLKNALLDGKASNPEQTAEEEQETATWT

[2] = biological target: T1, Toll-like receptor 4 (Mus musculus); assay: Inhibition of LPS binding to TLR4 in IFNgamma-stimulated mouse RAW264.7 cells assessed as effect on ratio of phosphorylated AKT to total AKT at 100 uM measured after 120 mins by Western blot analysis relative to beta-actin (reference value: 1.4)
[3] = biological target: T1, Toll-like receptor 4 (Mus musculus); assay: Inhibition of LPS binding to TLR4 in IFNgamma-stimulated mouse RAW264.7 cells assessed as effect on ratio of phosphorylated JNK to total JNK at 100 uM measured after 15 mins by Western blot analysis relative to beta-actin (reference value: 2)
[4] = biological target: T1, Toll-like receptor 4 (Mus musculus); assay: Inhibition of LPS binding to TLR4 in IFNgamma-stimulated mouse RAW264.7 cells assessed as effect on ratio of phosphorylated NFkappaB to total NFkappaB at 100 uM measured after 30 mins by Western blot analysis relative to beta-actin (reference value: 2.7)
[5] = biological target: T1, Toll-like receptor 4 (Mus musculus); assay: Inhibition of LPS binding to TLR4 in IFNgamma-stimulated mouse RAW264.7 cells assessed as effect on ratio of phosphorylated NFkappaB to total NFkappaB at 100 uM measured after 15 mins by Western blot analysis relative to beta-actin (reference value: 4.7)
[6] = biological target: T1, Toll-like receptor 4 (Mus musculus); assay: Inhibition of LPS binding to TLR4 in IFNgamma-stimulated mouse RAW264.7 cells assessed as effect on ratio of phosphorylated p38 to total p38 at 100 uM measured after 120 mins by Western blot analysis relative to beta-actin (reference value: 2.2)
[7] = biological target: T2, Nuclear factor erythroid 2-related factor 2 (Mus musculus) (UniProt Q60795); assay: Induction of NRF2-ARE mediated HO-1 expression in mouse RAW264.7 cells at 100 uM after 2 hrs by Western blot analysis
T2 sequence (whole entry): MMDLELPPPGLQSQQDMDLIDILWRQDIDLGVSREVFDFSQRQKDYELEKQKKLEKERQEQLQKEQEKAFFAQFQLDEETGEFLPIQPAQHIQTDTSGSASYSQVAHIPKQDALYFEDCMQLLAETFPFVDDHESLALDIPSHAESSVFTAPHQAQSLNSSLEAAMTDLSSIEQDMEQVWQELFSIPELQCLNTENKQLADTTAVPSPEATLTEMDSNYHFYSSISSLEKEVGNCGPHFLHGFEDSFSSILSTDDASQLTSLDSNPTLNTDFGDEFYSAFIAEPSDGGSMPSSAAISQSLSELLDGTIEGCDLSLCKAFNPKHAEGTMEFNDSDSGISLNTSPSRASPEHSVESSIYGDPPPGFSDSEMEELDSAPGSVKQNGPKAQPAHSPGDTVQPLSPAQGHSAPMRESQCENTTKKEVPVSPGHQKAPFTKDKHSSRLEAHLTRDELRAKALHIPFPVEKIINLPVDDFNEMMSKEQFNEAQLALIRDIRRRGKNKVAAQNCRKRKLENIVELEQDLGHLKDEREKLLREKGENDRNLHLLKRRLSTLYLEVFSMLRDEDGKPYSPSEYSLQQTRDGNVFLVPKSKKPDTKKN

[8] = biological target: T1, Toll-like receptor 4 (Mus musculus); assay: Inhibition of LPS binding to TLR4 in IFNgamma-stimulated mouse RAW264.7 cells assessed as effect on ratio of phosphorylated JNK to total JNK at 100 uM measured after 30 mins by Western blot analysis relative to beta-actin (reference value: 2.3)
[9] = biological target: T1, Toll-like receptor 4 (Mus musculus); assay: Inhibition of LPS binding to TLR4 in IFNgamma-stimulated mouse RAW264.7 cells assessed as reduction in iNOS expression at 100 uM by Western blot analysis
[10] = tested on: RAW264.7; assay: Inhibition of IFNgamma binding to IFNGR in LPS-stimulated mouse RAW264.7 cells assessed as effect on ratio of phosphorylated Stat1 to total Stat1 at 100 uM measured after 60 mins by Western blot analysis relative to beta-actin (reference value: 4.1)
[11] = biological target: T1, Toll-like receptor 4 (Mus musculus); assay: Inhibition of LPS binding to TLR4 in IFNgamma-stimulated mouse RAW264.7 cells assessed as effect on ratio of phosphorylated JNK to total JNK at 100 uM measured after 60 mins by Western blot analysis relative to beta-actin (reference value: 1.4)
[12] = biological target: T1, Toll-like receptor 4 (Mus musculus); assay: Inhibition of LPS binding to TLR4 in IFNgamma-stimulated mouse RAW264.7 cells assessed as suppression of NFkappaB nuclear translocation
[13] = biological target: T1, Toll-like receptor 4 (Mus musculus); assay: Inhibition of LPS binding to TLR4 in IFNgamma-stimulated mouse RAW264.7 cells assessed as effect on ratio of phosphorylated ERK to total ERK at 100 uM measured after 30 mins by Western blot analysis relative to beta-actin (reference value: 0.8)
[14] = biological target: T1, Toll-like receptor 4 (Mus musculus); assay: Inhibition of LPS binding to TLR4 in IFNgamma-stimulated mouse RAW264.7 cells assessed as effect on ratio of phosphorylated AKT to total AKT at 100 uM measured after 60 mins by Western blot analysis relative to beta-actin (reference value: 1.4)
[15] = biological target: T1, Toll-like receptor 4 (Mus musculus); assay: Inhibition of LPS binding to TLR4 in IFNgamma-stimulated mouse RAW264.7 cells assessed as effect on ratio of phosphorylated TAK1 to total TAK1 at 100 uM measured after 15 mins by Western blot analysis relative to beta-actin (reference value: 1.3)

C=C(C)[C@@H]1CC[C@]2(C)[C@H](CC=C3[C@@H]4CC(C)(C)CC[C@]4(C)CC[C@]32C(=O)O)[C@@]1(C)CCC(=O)O
inhibition [1]: Active | fold change (FC) [2]: 0.9 | fold change (FC) [3]: 1 | fold change (FC) [4]: 1.6 | fold change (FC) [5]: 2.9 | fold change (FC) [6]: 1.3 | Activity [7]: inactive | fold change (FC) [8]: 1.5 | inhibition [9]: Active | fold change (FC) [10]: 1.8 | fold change (FC) [11]: 1.1 | inhibition [12]: Active | fold change (FC) [13]: 0.7 | fold change (FC) [14]: 1 | fold change (FC) [15]: 1
